Assay results published in ChEMBL document CHEMBL1138480, “Discovery of highly potent and selective biphenylacylsulfonamide-based beta3-adrenergic receptor agonists and evaluation of physical properties as potential overactive bladder therapies: part 5” (J Med Chem, 2009).

Columns and labels:
[1] = Total clearance in monkey at 0.32 mg/kg, iv by cassette assay; assay type: ADME, organism-based, Macaca mulatta; parameters: dose 0.32 mg/kg, route intravenous; conditions: rhesus monkey, in vivo
[2] = Total clearance in Beagle dog at 0.10 mg/kg, iv by cassette assay; assay type: ADME, organism-based, Canis lupus familiaris; parameters: dose 0.1 mg/kg, route intravenous; conditions: in vivo, 0.1 mg/kg
[3] = Bioavailability in rat at 0.32 mg/kg, po and iv by cassette assay; assay type: ADME, organism-based; conditions: in vivo
[4] = Metabolic stability in monkey liver microsomes assessed as intrinsic clearance after 120 mins in presence of NADPH; assay type: ADME, Macaca mulatta, Microsome; conditions: rhesus monkey
[5] = Cmax in monkey at 0.32 mg/kg, po by cassette assay; assay type: ADME, organism-based, Macaca mulatta; parameters: dose 0.32 mg/kg, route oral; conditions: rhesus monkey, in vivo
[6] = Inhibition of KCl-induced tonic contraction in Beagle dog detrusor muscle strips preincubated for 15 mins before KCl challenge; assay type: functional; conditions: Canis lupus familiaris
[7] = target: Beta-3 adrenergic receptor (Canis lupus familiaris, UniProt O02662); assay: Agonist activity at dog recombinant beta3 adrenergic receptor expressed in CHO cells assessed as cAMP accumulation by enzyme immunoassay; assay type: functional, cell-based
[8] = tested on: Canis familiaris; assay: Inhibition of carbachol-induced increase in intravesical pressure in intraduodenally dosed Beagle dog OAB model for 30 mins measured for 180 mins; assay type: functional, organism-based; conditions: Canis lupus familiaris
[9] = AUC (0 to 24 hrs) in monkey at 0.32 mg/kg, po by cassette assay; assay type: ADME, organism-based, Macaca mulatta; parameters: time < 24 hr, dose 0.32 mg/kg, route oral; conditions: rhesus monkey, plasma
[10] = Terminal half life in rat plasma at 0.32 mg/kg, iv by cassette assay; assay type: ADME, organism-based; parameters: dose 0.32 mg/kg, route intravenous; conditions: read-out: beta t1/2 (converted)
[11] = Bioavailability in monkey at 0.32 mg/kg, po and iv by cassette assay; assay type: ADME, organism-based, Macaca mulatta; conditions: rhesus monkey, in vivo
[12] = Metabolic stability in rat liver microsomes assessed as intrinsic clearance after 120 mins in presence of NADPH; assay type: ADME, Microsome
[13] = tested on: Canis familiaris; assay: Inhibition of carbachol-induced increase in intravesical pressure in Beagle dog OAB model at 10 ug/kg, iv for 30 mins measured for 180 mins; assay type: functional; conditions: Canis lupus familiaris
[14] = target: Beta-2 adrenergic receptor (Homo sapiens, UniProt P07550)
Description: Agonist activity at human recombinant beta2 adrenergic receptor expressed in CHO cells assessed as cAMP accumulation by enzyme immunoassay

[15] = Terminal half life in Beagle dog plasma at 0.10 mg/kg, iv by cassette assay; assay type: ADME, organism-based, Canis lupus familiaris; parameters: dose 0.1 mg/kg, route intravenous; conditions: 0.1 mg/kg, read-out: beta t1/2 (converted)
[16] = AUC (0 to 24 hrs) in rat at 0.32 mg/kg, po by cassette assay; assay type: ADME, organism-based; parameters: time < 24 hr, dose 0.32 mg/kg, route oral; conditions: plasma
[17] = Cmax in rat at 0.32 mg/kg, po by cassette assay; assay type: ADME, organism-based; parameters: dose 0.32 mg/kg, route oral; conditions: in vivo
[18] = Metabolic stability in dog liver microsomes assessed as intrinsic clearance after 120 mins in presence of NADPH; assay type: ADME, Canis lupus familiaris, Microsome
[19] = Cmax in Beagle dog at 0.10 mg/kg, po by cassette assay; assay type: ADME, organism-based, Canis lupus familiaris; parameters: dose 0.1 mg/kg, route oral; conditions: in vivo, 0.1 mg/kg
[20] = Bioavailability in Beagle dog at 0.10 mg/kg, po and iv by cassette assay; assay type: ADME, organism-based, Canis lupus familiaris; conditions: in vivo, 0.1 mg/kg
[21] = target: Beta-3 adrenergic receptor (Homo sapiens, UniProt P13945); assay: Agonist activity at human recombinant beta3 adrenergic receptor expressed in CHO cells assessed as cAMP accumulation by enzyme immunoassay; assay type: functional, cell-based
[22] = Terminal half life in monkey plasma at 0.32 mg/kg, iv by cassette assay; assay type: ADME, organism-based, Macaca mulatta; parameters: dose 0.32 mg/kg, route intravenous; conditions: rhesus monkey, read-out: beta t1/2 (converted)
[23] = Total clearance in rat at 0.32 mg/kg, iv by cassette assay; assay type: ADME, organism-based; parameters: dose 0.32 mg/kg, route intravenous; conditions: in vivo
[24] = AUC (0 to 24 hrs) in Beagle dog at 0.10 mg/kg, po by cassette assay; assay type: ADME, organism-based, Canis lupus familiaris; parameters: time < 24 hr, dose 0.1 mg/kg, route oral; conditions: plasma, 0.1 mg/kg
[25] = target: Beta-1 adrenergic receptor (Homo sapiens, UniProt P08588)
Description: Agonist activity at human recombinant beta-1 adrenergic receptor expressed in CHO cells assessed as cAMP accumulation by enzyme immunoassay

[26] = Protein binding in Beagle dog serum; assay type: ADME, cell-free, Canis lupus familiaris; conditions: read-out: PPB (converted)
[27] = tested on: Canis familiaris; assay: Ratio of Cmax for drug to Cmax for (R)-4'-(2-(2-(3-chlorophenyl)-2-hydroxyethylamino)ethyl)-3-isopropoxybiphenyl-4-carboxylic acid in beagle dog at 0.1 or 0.2 mg/kg, po by cassette assay; assay type: ADME, organism-based, Canis lupus familiaris; parameters: dose 0.2 mg/kg, route oral; conditions: in vivo
[28] = Ratio of EC50 for inhibition of KCl-induced tonic contraction in anesthetized Beagle dog detrusor muscle strip to EC50 for dog recombinant beta3 adrenergic receptor expressed in CHO cells; parameters: species or system Canis lupus familiaris
[29] = Metabolic stability in human liver microsomes assessed as intrinsic clearance after 120 mins in presence of NADPH; assay type: ADME, Microsome
[30] = Total clearance in Beagle dog at 0.10 mg/kg, iv; conditions: in vivo, 0.1 mg/kg
[31] = AUC (0 to 24 hrs) in Beagle dog at 0.10 mg/kg, po; assay type: ADME, organism-based, Canis lupus familiaris; parameters: time < 24 hr, dose 0.1 mg/kg, route oral; conditions: plasma, 0.1 mg/kg
[32] = Bioavailability in Beagle dog at 0.10 mg/kg, po and iv; assay type: ADME, organism-based, Canis lupus familiaris; conditions: in vivo, 0.1 mg/kg
[33] = Cmax in Beagle dog at 0.10 mg/kg, po; assay type: ADME, organism-based, Canis lupus familiaris; parameters: dose 0.1 mg/kg, route oral; conditions: in vivo, 0.1 mg/kg
[34] = Terminal half life in Beagle dog at 0.10 mg/kg, po; assay type: ADME, organism-based, Canis lupus familiaris; parameters: dose 0.1 mg/kg, route oral; conditions: in vivo, 0.1 mg/kg, read-out: beta t1/2 (converted)

Sequence of Beta-3 adrenergic receptor (Canis lupus familiaris, UniProt O02662) (O02662 whole entry): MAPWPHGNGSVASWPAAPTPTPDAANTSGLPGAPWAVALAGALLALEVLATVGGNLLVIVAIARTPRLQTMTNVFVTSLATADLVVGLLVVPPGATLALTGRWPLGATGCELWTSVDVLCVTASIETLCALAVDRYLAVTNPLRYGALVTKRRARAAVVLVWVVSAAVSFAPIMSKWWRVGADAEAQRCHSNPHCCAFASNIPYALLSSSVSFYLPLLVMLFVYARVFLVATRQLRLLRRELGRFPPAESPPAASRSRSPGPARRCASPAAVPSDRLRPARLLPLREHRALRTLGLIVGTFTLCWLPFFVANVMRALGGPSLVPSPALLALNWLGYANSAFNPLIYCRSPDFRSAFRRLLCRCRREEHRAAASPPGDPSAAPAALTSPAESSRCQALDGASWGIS
Sequence of Beta-3 adrenergic receptor (Homo sapiens, UniProt P13945) (P13945 whole entry): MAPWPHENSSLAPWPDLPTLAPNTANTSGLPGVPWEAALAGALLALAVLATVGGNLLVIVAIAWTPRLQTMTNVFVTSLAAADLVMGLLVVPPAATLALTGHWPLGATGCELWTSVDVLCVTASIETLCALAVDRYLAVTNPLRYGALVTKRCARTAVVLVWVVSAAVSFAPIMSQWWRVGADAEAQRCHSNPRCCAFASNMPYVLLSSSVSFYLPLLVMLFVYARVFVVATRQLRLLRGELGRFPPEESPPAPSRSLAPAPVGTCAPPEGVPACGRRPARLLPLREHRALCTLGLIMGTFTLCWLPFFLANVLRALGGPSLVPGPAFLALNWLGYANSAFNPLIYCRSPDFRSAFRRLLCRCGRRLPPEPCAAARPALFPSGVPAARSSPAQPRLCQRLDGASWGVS
Sequence of Beta-2 adrenergic receptor (P07550 whole entry): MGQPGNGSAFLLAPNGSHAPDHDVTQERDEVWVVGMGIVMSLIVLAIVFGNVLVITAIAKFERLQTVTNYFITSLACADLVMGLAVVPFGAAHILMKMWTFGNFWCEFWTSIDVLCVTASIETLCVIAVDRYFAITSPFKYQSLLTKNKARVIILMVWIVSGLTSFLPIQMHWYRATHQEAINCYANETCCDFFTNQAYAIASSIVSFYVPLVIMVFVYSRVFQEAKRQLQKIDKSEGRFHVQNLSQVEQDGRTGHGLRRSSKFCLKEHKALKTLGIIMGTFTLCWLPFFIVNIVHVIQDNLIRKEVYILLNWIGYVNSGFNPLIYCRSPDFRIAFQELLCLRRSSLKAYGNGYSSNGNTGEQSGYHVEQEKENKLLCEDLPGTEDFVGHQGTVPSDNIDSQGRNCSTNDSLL
Sequence of Beta-1 adrenergic receptor (P08588 whole entry): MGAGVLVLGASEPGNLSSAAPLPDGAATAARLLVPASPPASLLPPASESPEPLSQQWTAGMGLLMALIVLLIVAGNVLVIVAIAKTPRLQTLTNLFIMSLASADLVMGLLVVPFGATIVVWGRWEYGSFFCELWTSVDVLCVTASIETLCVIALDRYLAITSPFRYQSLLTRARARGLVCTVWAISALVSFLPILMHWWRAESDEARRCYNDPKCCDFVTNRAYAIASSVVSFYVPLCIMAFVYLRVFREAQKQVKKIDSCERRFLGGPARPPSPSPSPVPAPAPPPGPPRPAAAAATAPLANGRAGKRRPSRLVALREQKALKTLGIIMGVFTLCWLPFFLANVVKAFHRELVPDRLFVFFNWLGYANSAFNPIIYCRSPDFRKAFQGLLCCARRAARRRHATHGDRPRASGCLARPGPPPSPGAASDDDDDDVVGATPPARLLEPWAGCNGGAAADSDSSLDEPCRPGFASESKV

| Compound | clearance [1] | clearance [2] | bioavailability [3] | Cmax [5] | EC50 ([6]; read-out: EC50) | EC50 ([7]; read-out: EC50) | EC50 [8] | ED50 [8] | AUC(0-t) at 24 h [9] | half-life [10] | bioavailability [11] | inhibition in vivo at 0.01 mg/kg [13] | EC50 [14] | half-life [15] | Cmax [19] | bioavailability [20] | EC50 ([21]; read-out: EC50) | AUC(0-t) at 24 h [24] | EC50 [25] | fraction unbound [26] | also measured |
| --- | --- | --- | --- | --- | --- | --- | --- | --- | --- | --- | --- | --- | --- | --- | --- | --- | --- | --- | --- | --- | --- |
| CC(C)Nc1cc(-c2ccc(CCNC[C@H](O)c3ccccc3)cc2)ccc1C(=O)NS(C)(=O)=O.Cl.Cl | 25.9 mL/min/kg | 7.5 mL/min/kg | 20% | 2.7 ng/mL | 1.2 nM | 1.1 nM | 7.1 nM | 0.0349 mg/kg | 19.3 ng·h/mL | 4.1 h | 10% | > 70% | > 10000 nM | 6.3 h | 8.6 ng/mL | 45% | 0.6 nM | 95.8 ng·h/mL | 260 nM | 0.1 | CLint scaled [4]: 5.4 mL/min/kg; CLint scaled [12]: 36 mL/min/kg; AUC(0-t) at 24 h [16]: 60.9 ng·h/mL; Cmax [17]: 14.9 ng/mL; CLint scaled [18]: 3.3 mL/min/kg; half-life [22]: 3.1 h; clearance [23]: 16.9 mL/min/kg |
| O=C(O)c1ccc(-c2ccc(CCNC[C@H](O)c3cccnc3)cc2)cc1OC1CCCCC1 | – | – | – | – | 14.1 nM | – | 4 nM | 0.065 mg/kg | – | – | – | – | > 10000 nM | – | – | – | – | – | – | 0.11 | Ratio [27]: 0.48; EC50 ([6]; read-out: pEC50 (converted)): 5.01 nM; EC50 ([7]; read-out: pEC50 (converted)): 1.26 nM; EC50 ([21]; read-out: pEC50 (converted)): 0.251 nM |
| CS(=O)(=O)NC(=O)c1ccc(-c2ccc(CCNC[C@H](O)c3ccccc3)cc2)cc1OC1CCCCC1.Cl | – | 3 mL/min/kg | – | – | > 50 nM | 0.83 nM | – | – | – | – | – | 58% | – | 7.8 h | 22.2 ng/mL | 70% | 0.43 nM | 363 ng·h/mL | > 1000 nM | – | EC50 ([6]; read-out: pEC50 (converted)): 12.6 nM; Ratio EC50 [28]: >50; EC50 ([21]; read-out: pEC50 (converted)): 0.126 nM |
| CS(=O)(=O)NC(=O)c1ccc(-c2ccc(CCNC[C@H](O)c3cccnc3)cc2)cc1OC1CCCCC1.Cl.Cl | 7.5 mL/min/kg | 3.2 mL/min/kg | 25% | 35.1 ng/mL | 62 nM | 1.4 nM | 26.5 nM | 0.0162 mg/kg | 272 ng·h/mL | 3 h | 38% | > 70% | > 10000 nM | 5.5 h | 34.5 ng/mL | 81% | 0.13 nM | 385 ng·h/mL | 800 nM | 0.17 | CLint scaled [4]: 3.4 mL/min/kg; CLint scaled [12]: 46.9 mL/min/kg; AUC(0-t) at 24 h [16]: 72.2 ng·h/mL; Ratio EC50 [28]: >50; Cmax [17]: 17 ng/mL; half-life [22]: 4.7 h; clearance [23]: 17.1 mL/min/kg; CLint scaled [29]: 3.5 mL/min/kg |
| CC(C)Oc1cc(-c2ccc(CCNC[C@H](O)c3cccnc3)cc2)ccc1C(=O)O | – | – | – | – | – | – | – | – | – | – | – | – | > 10000 nM | – | – | – | – | – | – | – | Ratio [27]: 0.65; EC50 ([6]; read-out: pEC50 (converted)): 7.94 nM; EC50 ([7]; read-out: pEC50 (converted)): 10 nM; EC50 ([21]; read-out: pEC50 (converted)): 1.58 nM |
| CC(C)Sc1cc(-c2ccc(CCNC[C@H](O)c3ccccc3)cc2)ccc1C(=O)NS(C)(=O)=O.Cl | 9.2 mL/min/kg | 2.9 mL/min/kg | 41% | 15.7 ng/mL | 11.4 nM | 0.68 nM | 8.2 nM | 0.0145 mg/kg | 143 ng·h/mL | 2.3 h | 24% | > 70% | > 10000 nM | 4.3 h | 39.8 ng/mL | 75% | 0.32 nM | 441 ng·h/mL | > 1000 nM | 0.1 | clearance [30]: 5.1 mL/min/kg; AUC(0-t) at 24 h [31]: 215 ng·h/mL; bioavailability [32]: 62%; CLint scaled [12]: 84.3 mL/min/kg; AUC(0-t) at 24 h [16]: 108 ng·h/mL; Cmax [17]: 9.9 ng/mL; half-life [22]: 5.8 h; clearance [23]: 19.6 mL/min/kg; Cmax [33]: 18.2 ng/mL; half-life [34]: 4.8 h |
